Assay [1] deals with V113L mutant human CB2 receptor (Homo sapiens, UniProt P34972, V113L). The class given is binding.
Assay [2] concerns the target L192A mutant human CB2 receptor (Homo sapiens, UniProt P34972, L192A). The class given is binding.

V113L mutant human CB2 receptor, sequence (P34972 whole entry V113L): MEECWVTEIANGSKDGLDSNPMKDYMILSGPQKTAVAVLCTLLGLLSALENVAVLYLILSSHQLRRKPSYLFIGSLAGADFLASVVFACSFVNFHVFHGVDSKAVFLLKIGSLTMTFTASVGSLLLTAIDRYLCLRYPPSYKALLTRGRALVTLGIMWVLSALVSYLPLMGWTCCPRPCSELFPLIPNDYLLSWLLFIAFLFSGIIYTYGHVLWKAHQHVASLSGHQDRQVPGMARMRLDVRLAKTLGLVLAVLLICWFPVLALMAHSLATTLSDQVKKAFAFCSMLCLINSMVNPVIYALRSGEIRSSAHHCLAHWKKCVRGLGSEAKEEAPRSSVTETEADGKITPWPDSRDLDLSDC
L192A mutant human CB2 receptor, sequence (P34972 whole entry L192A): as the sequence (P34972 whole entry V113L) above, with L113V, L192A counted along it

Turning to SR144528, the “Reduction of binding compared to wild type” value is 6 fold in assay [1] (V113L mutant vs wild type CB2) and 5 fold in assay [2] (L192A mutant vs wild type CB2). Also, the “Effect of substitution on CB2 binding affinity compared to the wild-type” value in assay [1] (V113L mutant vs wild type CB2, in words) was “slight reduction”; in assay [2] (L192A mutant vs wild type CB2, in words), “slightly reduced”.

The record behind these values is paper PMC4465889 (Biochemical and biophysical research communications, 2014).
